From ChEMBL document CHEMBL5365407, “Design, synthesis and biological evaluation of nitric oxide-releasing 5-cyano-6-phenyl-2, 4-disubstituted pyrimidine derivatives” (Bioorg Med Chem Lett, 2023)
One block for each compound: values may come before it. Calls of active or inactive are those of the source. No cut-off for these calls is given here.

Experiments:
[1] = tested on: Bel7402/5-FU; assay: Antiproliferative activity against human BEL-7402/5-FU cell; assay type: functional, cell-based
[2] = target: Lysine-specific histone demethylase 1A (Homo sapiens, UniProt O60341); assay: Inhibition of LSD1 (unknown origin)
[3] = tested on: MGC-803; assay: Induction of apoptosis in human MGC-803 cells assessed as viable cells at 1 uM by Annexin V-FITC/PI staining based flow cytometric analysis (reference value: 94.4%); assay type: functional; settings: read-out: Activity
[4] = tested on: MGC-803; assay: Induction of apoptosis in human MGC-803 cells assessed as viable cells at 0.5 uM by Annexin V-FITC/PI staining based flow cytometric analysis (reference value: 94.4%); assay type: functional; settings: read-out: Activity
[5] = tested on: MGC-803; assay: Induction of reactive oxygen species generation in human MGC-803 cells by DCFH-DA staining fluorescence assay; assay type: functional, cell-based; settings: dose 0.5-2 µM
[6] = tested on: MGC-803; assay: Induction of apoptosis in human MGC-803 cells assessed as late apoptotic cells at 2 uM by Annexin V-FITC/PI staining based flow cytometric analysis (reference value: 2.14 %); assay type: functional
[7] = tested on: ECa-109 cell line; assay: Antiproliferative activity against human Eca-109 cells measured after 72 hrs by MTT assay; assay type: functional, cell-based; settings: ECa-109, 72 h
[8] = tested on: PC-3; assay: Antiproliferative activity against human PC-3 cells measured after 72 hrs by MTT assay; assay type: functional, cell-based; settings: PC-3, 72 h
[9] = tested on: MGC-803; assay: Antiproliferative activity against human MGC-803 cells assessed as decrease in number of colonies by crystal violet staining based assay; assay type: functional, cell-based; settings: dose 0.5-2 µM
[10] = tested on: MGC-803; assay: Induction of cell cycle arrest in human MGC-803 cells assessed as accumulation of cells at G0/G1 phase at 0.5 uM incubated for 24 hrs by PI staining based flow cytometry analysis (reference value: 56.68 %); assay type: functional
[11] = tested on: MGC-803; assay: Induction of cell cycle arrest in human MGC-803 cells assessed as accumulation of cells at G0/G1 phase at 1 uM incubated for 24 hrs by PI staining based flow cytometry analysis (reference value: 56.68 %); assay type: functional
[12] = tested on: MGC-803; assay: Induction of cell cycle arrest in human MGC-803 cells assessed as accumulation of cells at G0/G1 phase at 2 uM incubated for 24 hrs by PI staining based flow cytometry analysis (reference value: 56.68 %); assay type: functional
[13] = tested on: MGC-803; assay: Induction of cell cycle arrest in human MGC-803 cells assessed as accumulation of cells at S phase at 0.5 uM incubated for 24 hrs by PI staining based flow cytometry analysis (reference value: 29.00 %); assay type: functional
[14] = tested on: MGC-803; assay: Induction of cell cycle arrest in human MGC-803 cells assessed as accumulation of cells at S phase at 1 uM incubated for 24 hrs by PI staining based flow cytometry analysis (reference value: 29.00 %); assay type: functional
[15] = tested on: MGC-803; assay: Induction of cell cycle arrest in human MGC-803 cells assessed as accumulation of cells at S phase at 2 uM incubated for 24 hrs by PI staining based flow cytometry analysis (reference value: 29.00 %); assay type: functional
[16] = tested on: MGC-803; assay: Induction of cell cycle arrest in human MGC-803 cells assessed as accumulation of cells at G2/M phase at 0.5 uM incubated for 24 hrs by PI staining based flow cytometry analysis (reference value: 14.32 %); assay type: functional
[17] = tested on: MGC-803; assay: Induction of cell cycle arrest in human MGC-803 cells assessed as accumulation of cells at G2/M phase at 1 uM incubated for 24 hrs by PI staining based flow cytometry analysis (reference value: 14.32 %); assay type: functional
[18] = tested on: MGC-803; assay: Induction of cell cycle arrest in human MGC-803 cells assessed as accumulation of cells at G2/M phase at 2 uM incubated for 24 hrs by PI staining based flow cytometry analysis (reference value: 14.32 %); assay type: functional
[19] = tested on: MGC-803; assay: Induction of morphological changes in human MGC-803 cells assessed as appearance of dense and concentrated granules at 0.5 to 2 uM for 48 hrs by DAPI staining based fluorescence microscopy; assay type: functional, cell-based; settings: dose 0.5-2 µM
[20] = tested on: MGC-803; assay: Induction of apoptosis in human MGC-803 cells assessed as viable cells at 2 uM by Annexin V-FITC/PI staining based flow cytometric analysis (reference value: 94.4%); assay type: functional; settings: read-out: Activity
[21] = tested on: MGC-803; assay: Induction of apoptosis in human MGC-803 cells assessed as early apoptotic cells at 0.5 uM by Annexin V-FITC/PI staining based flow cytometric analysis (reference value: 2.79%); assay type: functional
[22] = tested on: MGC-803; assay: Induction of apoptosis in human MGC-803 cells assessed as early apoptotic cells at 1 uM by Annexin V-FITC/PI staining based flow cytometric analysis (reference value: 2.79%); assay type: functional
[23] = tested on: MGC-803; assay: Induction of apoptosis in human MGC-803 cells assessed as early apoptotic cells at 2 uM by Annexin V-FITC/PI staining based flow cytometric analysis (reference value: 2.79%); assay type: functional
[24] = tested on: MGC-803; assay: Induction of apoptosis in human MGC-803 cells assessed as late apoptotic cells at 0.5 uM by Annexin V-FITC/PI staining based flow cytometric analysis (reference value: 2.14 %); assay type: functional
[25] = tested on: MGC-803; assay: Induction of apoptosis in human MGC-803 cells assessed as late apoptotic cells at 1 uM by Annexin V-FITC/PI staining based flow cytometric analysis (reference value: 2.14 %); assay type: functional
[26] = tested on: MGC-803; assay: Induction of apoptosis in human MGC-803 cells assessed as necrotic cells at 0.5 uM by Annexin V-FITC/PI staining based flow cytometric analysis (reference value: 0.69%); assay type: functional
[27] = tested on: MGC-803; assay: Induction of apoptosis in human MGC-803 cells assessed as necrotic cells at 1 uM by Annexin V-FITC/PI staining based flow cytometric analysis (reference value: 0.69%); assay type: functional
[28] = tested on: MGC-803; assay: Induction of apoptosis in human MGC-803 cells assessed as necrotic cells at 2 uM by Annexin V-FITC/PI staining based flow cytometric analysis (reference value: 0.69%); assay type: functional
[29] = Induction of NO release in phosphate buffer containing excess L-cysteine measured up to 14 hrs by Griess assay; assay type: functional
[30] = tested on: MGC-803; assay: Antiproliferative activity against human MGC-803 assessed as cell survival by MTT assay relative to control; assay type: functional
[31] = tested on: MGC-803; assay: Antiproliferative activity against human MGC-803 assessed as reduction in cell survival measured after 24 hrs in presence of NO scavenger hemoglobin at 1 to 20 uM by MTT assay; assay type: functional, cell-based
[32] = tested on: MGC-803; assay: Antiproliferative activity against human MGC-803 cells assessed as reduction in colony area at 0.5 to 2 uM by crystal violet staining based assay; assay type: functional, cell-based; settings: dose 0.5-2 µM
[33] = tested on: MGC-803; assay: Induction of morphological changes in human MGC-803 cells assessed as nuclear shrinkage at 0.5 to 2 uM incubated for 48 hrs by DAPI staining based fluorescence microscopy; assay type: functional, cell-based; settings: dose 0.5-2 µM
[34] = tested on: MGC-803; assay: Induction of morphological changes in human MGC-803 cells assessed as nuclear condensation at 0.5 to 2 uM incubated for 48 hrs by DAPI staining based fluorescence microscopy; assay type: functional, cell-based; settings: dose 0.5-2 µM
[35] = tested on: MGC-803; assay: Induction of morphological changes in human MGC-803 cells assessed as appearance of broken cell at 0.5 to 2 uM incubated for 48 hrs by DAPI staining based fluorescence microscopy; assay type: functional; settings: dose 0.5-2 µM
[36] = tested on: MGC-803; assay: Induction of apoptosis in human MGC-803 cells by Annexin V-FITC/PI staining based flow cytometric analysis; assay type: functional, cell-based; settings: dose 0.5-2 µM
[37] = tested on: MGC-803; assay: cells; settings: Homo sapiens, MGC-803, 72 h
Description: Antiproliferative activity against human MGC-803 cells measured after 72 hrs by MTT assay

[38] = tested on: MCF7; assay: cells; settings: Homo sapiens, MCF7, 72 h
Description: Antiproliferative activity against human MCF7 cells measured after 72 hrs by MTT assay

[39] = target: T1, Tyrosine-protein kinase JAK3 (Homo sapiens, UniProt P52333); assay: biochemical; assay type: cell-based, Sf9
T1 sequence (P52333 whole entry): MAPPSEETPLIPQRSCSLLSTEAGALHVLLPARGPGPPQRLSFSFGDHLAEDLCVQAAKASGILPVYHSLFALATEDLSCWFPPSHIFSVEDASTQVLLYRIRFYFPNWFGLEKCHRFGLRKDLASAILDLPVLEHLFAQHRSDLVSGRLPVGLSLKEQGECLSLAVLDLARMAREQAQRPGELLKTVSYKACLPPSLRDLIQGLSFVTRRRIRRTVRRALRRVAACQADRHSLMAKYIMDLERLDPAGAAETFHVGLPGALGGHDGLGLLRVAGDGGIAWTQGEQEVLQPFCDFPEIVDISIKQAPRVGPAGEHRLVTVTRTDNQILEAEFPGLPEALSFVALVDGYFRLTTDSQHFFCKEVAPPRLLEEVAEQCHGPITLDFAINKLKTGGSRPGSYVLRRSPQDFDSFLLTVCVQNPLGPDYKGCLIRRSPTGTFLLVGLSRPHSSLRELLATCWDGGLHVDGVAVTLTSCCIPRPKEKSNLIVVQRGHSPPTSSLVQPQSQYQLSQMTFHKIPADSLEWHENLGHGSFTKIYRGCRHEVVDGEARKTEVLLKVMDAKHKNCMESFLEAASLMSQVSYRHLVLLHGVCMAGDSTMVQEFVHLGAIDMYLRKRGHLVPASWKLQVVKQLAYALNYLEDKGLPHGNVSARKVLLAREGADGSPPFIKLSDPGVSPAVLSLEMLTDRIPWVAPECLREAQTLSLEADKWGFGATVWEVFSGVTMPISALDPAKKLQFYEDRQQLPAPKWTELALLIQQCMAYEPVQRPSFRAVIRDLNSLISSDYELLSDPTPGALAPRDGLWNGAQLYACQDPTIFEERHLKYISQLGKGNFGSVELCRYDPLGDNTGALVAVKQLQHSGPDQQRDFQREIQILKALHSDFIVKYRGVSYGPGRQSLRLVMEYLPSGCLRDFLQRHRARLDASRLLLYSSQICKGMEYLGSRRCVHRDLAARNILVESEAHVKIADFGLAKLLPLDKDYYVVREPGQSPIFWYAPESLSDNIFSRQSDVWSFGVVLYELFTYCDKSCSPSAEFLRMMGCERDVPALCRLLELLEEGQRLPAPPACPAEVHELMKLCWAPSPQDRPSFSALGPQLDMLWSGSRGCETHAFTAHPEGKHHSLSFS
Description: Inhibition of recombinant human N-terminal GST-tagged JAK3 (781 to end residues) expressed in baculovirus infected Sf9 cells using poly (Glu,Tyr) 4:1 as substrate incubated for 60 mins in presence of ATP by ADP-Glo kinase assay

IC50 [1]: 420 nM
SMILES: O=C1C(NCCOc2no[n+]([O-])c2S(=O)(=O)c2ccccc2)=CC(=O)c2ncccc21

IC50 [2]: 956 nM
SMILES: COc1ccc(/C=N/NC2NC(SCC(C)C)=NC(c3ccc(OC)cc3)=C2C#N)cc1 (centres undefined)

IC50 [8]: 1140 nM
IC50 [37]: 950 nM
IC50 [38]: 2030 nM
SMILES: COc1cc(Nc2nc(SCC(=O)N3CCN(CCOc4no[n+]([O-])c4S(=O)(=O)c4ccccc4)CC3)nc(-c3ccccc3)c2C#N)cc(OC)c1OC
viability at 1 µM [3]: 65.1%
viability at 0.5 µM [4]: 75.2%
Activity [5]: Dose-Dependent Effect
Activity [6]: 28.7%
IC50 [7]: 2210 nM
Activity [9]: Dose-Dependent Effect
Activity [10]: 60.59%
Activity [11]: 65.87%
Activity [12]: 74.33%
Activity [13]: 24.83%
Activity [14]: 19.71%
Activity [15]: 15.27%
Activity [16]: 14.58%
Activity [17]: 14.43%
Activity [18]: 10.4%
Activity [19]: Active
viability at 2 µM [20]: 58.3%
Activity [21]: 6.5%
Activity [22]: 7.71%
Activity [23]: 10.4%
Activity [24]: 15.1%
Activity [25]: 24%
Activity [26]: 3.22%
Activity [27]: 3.21%
Activity [28]: 2.69%
Activity [29]: Active
Activity [30]: 20%
Activity [31]: inactive
Activity [32]: Active
Activity [33]: Active
Activity [34]: Active
Activity [35]: Active
Activity [36]: Dose-Dependent Effect

IC50 [39]: 20.7 nM
SMILES: N#Cc1ccccc1Nc1nc(Nc2ccc(NC(=O)CN3CCOCC3)cc2)ncc1Cl
